Experiments:
[1] = biological target: T1, Z-alpha-1-antitrypsin (Z-A1AT) (Homo sapiens, UniProt P01009, E366K/V237A); assay: Inhibition of Z-alpha-1-antitrypsin polymerisation TR-FRET assay; type: biochemical; details: mean, 5 nM Z-A1AT, 72 hours at 37° C.
T1 construct: Z-alpha-1-antitrypsin was purified from human plasma; from tissue; host or cells: human plasma of ZZ homozygous donors
From the text: The potencies of the compounds of the invention for inhibition of Z-alpha-1-antitrypsin (Z-A1AT) polymerisation can be determined by a time-resolved fluorescence energy transfer (TR-FRET) assay performed on purified Z-A1AT as described herein. […] Mean activity data for the assay described below for compounds 1-4:
Inhibition of Z-Alpha-1-Antitrypsin Polymerisation Assay Protocol
Z-alpha-1-antitrypsin was purified from human plasma of donors homozygous for the Z-A1AT form. The purification was performed according to a published protocol (Lomas et al. Biochemistry 1993; 32:500-508) involving ammonium sulphate precipitation, thiol exchange fractionation, and anion exchange fractionation.
Purified Z-A1AT was diluted to 5 nM in PBS buffer with 0.01% Tween-20 and mixed with different concentrations of inhibitor compounds dissolved in DMSO, in 384-well assay plates. Following incubation for 72 hours at 37° C., the amount of Z-A1AT polymer was detected using a time-resolved fluorescence resonance energy transfer (TR-FRET) assay format, by adding an antibody detection mix to the assay plates. The detection mix contained an A1AT-polymer specific monoclonal antibody (Miranda et al. Hepatology 2010; 52: 1078-1088), Terbium-labelled anti-mouse antibody, a polyclonal rabbit anti-A1AT antibody, and an Alexa488-labelled anti-rabbit antibody. TR-FRET data were normalised to controls (DMSO vehicle control giving 0% inhibition, saturating concentrations of an active compound giving 100% inhibition), and IC50 values were derived by fitting 4-parameter logistic curves to the normalised data.
An antibody-based time-resolved fluorescence resonance energy transfer (TR-FRET) assay was used to monitor the polymerisation of 5 nM Z α1-antitrypsin following incubation with varying concentrations of compounds at 37° C. for 72 hours. This assay used the 2C1 monoclonal antibody that is specific to pathological polymers of α1-antitrypsin (Miranda et al. Hepatology 2010; 52: 1078-1088), a polyclonal antibody that binds to all forms of α1-antitrypsin, an anti-mouse IgG fluorescence donor (Eu-W1024) and an anti-rabbit IgG acceptor (APC).

[2] = system: Z α1-antitrypsin polymer; details: 2 weeks of dosing; Hidvegi et al. Science 2010; cited from earlier work

T1 sequence (P01009 25-418 V237A/E366K): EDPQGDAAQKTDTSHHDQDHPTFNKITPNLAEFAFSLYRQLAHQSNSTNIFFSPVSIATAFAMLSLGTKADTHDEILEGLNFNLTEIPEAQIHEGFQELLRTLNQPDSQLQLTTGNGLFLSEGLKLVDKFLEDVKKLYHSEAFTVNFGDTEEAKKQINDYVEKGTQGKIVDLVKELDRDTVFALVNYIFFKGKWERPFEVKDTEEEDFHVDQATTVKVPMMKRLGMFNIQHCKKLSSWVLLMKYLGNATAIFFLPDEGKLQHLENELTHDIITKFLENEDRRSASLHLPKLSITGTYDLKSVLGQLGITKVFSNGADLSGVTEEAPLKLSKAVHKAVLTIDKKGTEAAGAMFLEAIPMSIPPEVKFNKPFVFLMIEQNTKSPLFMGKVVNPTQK

Row | Compound | IC50 [1] | effects on liver polymer in Z α1-antitrypsin transgenic mice [2]
1 | CCC[C@@H](NC(=O)c1ccc(F)c2c1CC(=O)N2)[C@@H](O)c1cccc(C#N)c1Cl [Compound 3, N-((1S,2R)-1-(2-chloro-3-cyanophenyl)-1-hydroxypentan-2-yl)-7-fluoro-2-oxoindoline-4-carboxamide] | 3.16 nM | 
2 | NC(=O)N1c2ccccc2C=Cc2ccccc21 [Carbamazapine] |  | pronounced effects
3 | CCC[C@@H](NC(=O)c1ccc(F)c2c1CC(=O)N2)[C@@H](O)c1cccc(F)c1Cl [Compound 4, N-((1S,2R)-1-(2-chloro-3-fluorophenyl)-1-hydroxypentan-2-yl)-7-fluoro-2-oxoindoline-4-carboxamide] | 6.31 nM | 
4 | CCC[C@@H](NC(=O)c1cccc2c1CC(=O)N2)[C@@H](O)c1cccc(Cl)c1C [Compound 2, N-((1S,2R)-1-(3-chloro-2-methylphenyl)-1-hydroxypentan-2-yl)-2-oxoindoline-4-carboxamide] | 2.51 nM | 

Source: patent US11919856B2, “Compounds” (UCL BUSINESS LTD, priority 2018, dated 2024)
